In patent US11459312B2, “Sulphur substituted 3-oxo-2,3-dihydropyridazine-4-carboxamides” (Bayer Aktiengesellschaft, priority 2017, dated 2022):

Molecular target: T1, AHR (Homo sapiens, UniProt P35869)
T1 sequence (P35869 11-848): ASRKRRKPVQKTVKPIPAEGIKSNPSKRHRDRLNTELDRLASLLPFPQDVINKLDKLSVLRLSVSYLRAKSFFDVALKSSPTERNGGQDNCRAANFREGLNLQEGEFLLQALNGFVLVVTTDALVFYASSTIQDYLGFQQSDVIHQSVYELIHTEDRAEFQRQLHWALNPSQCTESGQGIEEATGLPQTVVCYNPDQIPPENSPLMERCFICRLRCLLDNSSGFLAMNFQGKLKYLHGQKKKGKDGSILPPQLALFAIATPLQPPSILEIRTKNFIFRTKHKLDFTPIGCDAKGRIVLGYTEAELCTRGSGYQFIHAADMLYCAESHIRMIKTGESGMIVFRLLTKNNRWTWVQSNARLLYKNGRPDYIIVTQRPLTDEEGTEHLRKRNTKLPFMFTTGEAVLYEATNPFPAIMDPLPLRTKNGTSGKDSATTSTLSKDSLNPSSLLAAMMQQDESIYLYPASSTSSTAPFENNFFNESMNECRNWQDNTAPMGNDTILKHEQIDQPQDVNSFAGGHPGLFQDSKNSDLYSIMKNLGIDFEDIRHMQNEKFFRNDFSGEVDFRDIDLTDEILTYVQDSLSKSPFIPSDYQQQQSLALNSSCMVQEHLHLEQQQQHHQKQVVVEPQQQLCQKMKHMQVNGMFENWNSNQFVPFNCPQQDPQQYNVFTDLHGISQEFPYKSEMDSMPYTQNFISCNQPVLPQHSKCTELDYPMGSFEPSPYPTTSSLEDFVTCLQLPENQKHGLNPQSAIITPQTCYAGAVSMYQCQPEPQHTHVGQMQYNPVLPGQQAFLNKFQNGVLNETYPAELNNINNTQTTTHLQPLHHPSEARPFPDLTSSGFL
Experiment: In vitro assay 1: AHR-luc transactivation assay, antagonism in human cell line (U87 glioblastoma cells, kynurenic acid prestimulated)
Format: cell-based
Set-up: U87 glioblastoma cells (ATCC) endogenously expressing AHR; host or cells: U87 glioblastoma cells, stably transfected with DRE-firefly luciferase and renilla reporter constructs only
Settings: firefly luciferase DRE reporter, 150 μM kynurenic acid, 20 hours, read-out: Assay 1: AHR-luc Hum Antagonism IC50
Description: Transactivation Assay in Human Cell Line (In Vitro Assays 1 and 2)
Transactivation assays were carried out in U87 glioblastoma cells (ATCC) endogenously expressing AHR. In addition the cells were stably transfected with an AHR inducible firefly luciferase reporter gene construct that carried AHR-binding sites (DRE) in its promoter and a renilla reporter gene construct with constitutively active promoter. Kynurenic acid is an endogenous AHR activating ligand and was used to prestimulate test cells prior to testing the antagonistic properties of compounds.
In Vitro Assay 1: Antagonism in Human Cell Line
Cells in medium (tryptophan free RPMI, 1% FCS, 2 mM Glutamine) supplemented with 150 μM kynurenic acid were grown for 20 hours in absence (negative control) or presence of increasing concentrations of test compounds (typical dilutions: […], 0.25 nmol/L, 0.89 nmol/L; 3.1 nmol/L, 11 nmol/L, 38 nmol/L, 130 nmol/L, 470 nmol/L, 1.6 μmol/L, 5.7 μmol/L and 20 μmol/L in duplicates). As positive inhibition control cells supplemented with 150 μM kynurenic acid were incubated in presence of 5 μM Staurosporin. Normalization was done by positive and negative controls.
Firefly luciferase and Renilla activity was determined by the DualGlo Luciferase Assay System (Promega, #2920). Renilla activity was used to assess toxic effects of compounds.

SMILES | IC50 [nM]
C[C@@H](C[S+](C)[O-])NC(=O)c1cc(-c2ccc(Cl)cc2)nn(-c2cccc(F)c2)c1=O (mixture of isomers) [Example 3, 6-(4-Chlorophenyl)-2-(3-fluorophenyl)-N-[(2S)-1-(methylsulfinyl)propan-2-yl]-3-oxo-2,3-dihydropyridazine-4-carboxamide] | 44.2
C[C@@H](CS(C)(=N)=O)NC(=O)c1cc(-c2ccc(Cl)cc2)nn(-c2cccc(F)c2)c1=O (mixture of isomers) [Example 6, 6-(4-Chlorophenyl)-2-(3-fluorophenyl)-N-[(2S)-1-(S-methylsulfonimidoyl)propan-2-yl]-3-oxo-2,3-di hydropyridazine-4-carboxamide] | 232
C[C@@H](C[S+](C)[O-])NC(=O)c1cc(-c2ccc(C(F)(F)F)cc2)nn(-c2cnn(C)c2)c1=O (mixture of isomers) [Example 23, 2-(1-Methyl-1H-pyrazol-4-yl)-N-[(2S)-1-(methylsulfinyl)propan-2-yl]-3-oxo-6-[4-(trifluoromethyl)phenyl]-2,3-dihydropyridazine-4-carboxamide] | 5.37
C[C@@H](CS(C)(=N)=O)NC(=O)c1cc(-c2ccc(C(F)(F)F)cc2)nn(-c2cnn(C)c2)c1=O (mixture of isomers) [Example 38, 2-(1-Methyl-1H-pyrazol-4-yl)-N-[(2S)-1-(S-methylsulfonimidoyl)propan-2-yl]-3-oxo-6-[4-(trifluoromethyl)phenyl]-2,3-dihydropyridazine-4-carboxamide] | 54.8
O=C(N[C@@H]1CS(=O)(=O)C[C@@H]1O)c1cc(-c2ccc(C(F)(F)F)cc2)nn(-c2cnsc2)c1=O (relative stereo) [Example 10, N-[(cis)-4-hydroxy-1,1-dioxidotetrahydro-thiophen-3-yl]-3-oxo-2-(1,2-thiazol-4-yl)-6-[4-(trifluoromethyl)phenyl]-2,3-dihydropyridazine-4-carboxamdie] | 2.41
O=C(N[C@@H]1CS(=O)(=O)C[C@@H]1O)c1cc(-c2ccc(C(F)(F)F)cc2)nn(-c2cccnc2)c1=O (relative stereo) [Example 16, N-[(cis)-4-hydroxy-1,1-dioxidotetrahydro-thiophen-3-yl]-3-oxo-2-(pyridin-3-yl)-6-[4-(trifluoromethyl)phenyl]-2,3-dihydropyridazine-4-carboxamide] | 29.2
O=C(N[C@@H]1CS(=O)(=O)C[C@@H]1O)c1cc(-c2ccc(C(F)(F)F)nc2)nn(-c2cccc(F)c2)c1=O (relative stereo) [Example 19, 2-(3-fluorophenyl)-N-[(cis)-4-hydroxy-1,1-dioxidotetrahydro-thiophen-3-yl]-3-oxo-6-[6-(trifluoromethyl)pyridin-3-yl]-2,3-dihydropyridazine-4-carboxamide] | 69.9
Cn1cc(-n2nc(-c3ccc(C(F)(F)F)cc3)cc(C(=O)N[C@@H]3C[S+]([O-])C[C@@H]3O)c2=O)cn1 (relative stereo) [Example 32, N-[(cis)-4-hydroxy-1-oxidotetrahydro-thiophen-3-yl]-2-(1-methyl-1H-pyrazol-4-yl)-3-oxo-6-[4-(trifluoromethyl)phenyl]-2,3-dihydropyridazine-4-carboxamide] | 41.6
O=C(N[C@@H]1C[S+]([O-])C[C@@H]1O)c1cc(-c2ccc(C(F)(F)F)cc2)nn(-c2cccnc2)c1=O (relative stereo) [Example 33, N-[(cis)-4-hydroxy-1-oxidotetrahydro-thiophen-3-yl]-3-oxo-2-(pyridin-3-yl)-6-[4-(trifluoromethyl)phenyl]-2,3-dihydropyridazine-4-carboxamide] | 139
C[C@@H](C[S+](C)[O-])NC(=O)c1cc(-c2ccc(Cl)cc2)nn(-c2cccc(F)c2)c1=O (single isomer, unassigned) [Example 4] | 40.2
C[C@@H](C[S+](C)[O-])NC(=O)c1cc(-c2ccc(Cl)cc2)nn(-c2cccc(F)c2)c1=O (single isomer, unassigned) [Example 5] | 180
C[C@@H](CS(C)(=N)=O)NC(=O)c1cc(-c2ccc(Cl)cc2)nn(-c2cccc(F)c2)c1=O (single isomer, unassigned) [Example 7] | 241
C[C@@H](CS(C)(=N)=O)NC(=O)c1cc(-c2ccc(Cl)cc2)nn(-c2cccc(F)c2)c1=O (single isomer, unassigned) [Example 8] | 140
O=C(N[C@@H]1CS(=O)(=O)C[C@@H]1O)c1cc(-c2ccc(C(F)(F)F)cc2)nn(-c2cnsc2)c1=O (single isomer, unassigned) [Example 11, (−)-N-[(cis)-4-hydroxy-1,1-dioxidotetrahydro-thiophen-3-yl]-3-oxo-2-(1,2-thiazol-4-yl)-6-[4-(trifluoromethyl)phenyl]-2,3-dihydropyridazine-4-carboxamide] | 3.46
O=C(N[C@@H]1CS(=O)(=O)C[C@@H]1O)c1cc(-c2ccc(C(F)(F)F)cc2)nn(-c2cnsc2)c1=O (single isomer, unassigned) [Example 12, (+)-N-[(cis)-4-hydroxy-1,1-dioxidotetra-hydrothiophen-3-yl]-3-oxo-2-(1,2-thiazol-4-yl)-6-[4-(trifluoromethyl)phenyl]-2,3-dihydropyridazine-4-carboxamide] | 1.11
O=C(N[C@@H]1CS(=O)(=O)C[C@@H]1O)c1cc(-c2ccc(C(F)(F)F)cc2)nn(-c2cccc(F)c2)c1=O (single isomer, unassigned) [Example 14, (+)-2-(3-fluorophenyl)-N-[(cis)-4-hydroxy-1,1-dioxidotetrahydro-thiophen-3-yl]-3-oxo-6-[4-(trifluoromethyl)phenyl]-2,3-dihydropyridazine-4-carboxamide] | 6.45
O=C(N[C@@H]1CS(=O)(=O)C[C@@H]1O)c1cc(-c2ccc(C(F)(F)F)cc2)nn(-c2cccnc2)c1=O (single isomer, unassigned) [Example 17, (+)-N-[(cis)-4-hydroxy-1,1-dioxidotetrahydro-thiophen-3-yl]-3-oxo-2-(pyridin-3-yl)-6-[4-(trifluoromethyl)phenyl]-2,3-dihydropyridazine-4-carboxamide] | 16.2
O=C(N[C@@H]1CS(=O)(=O)C[C@@H]1O)c1cc(-c2ccc(C(F)(F)F)cc2)nn(-c2cccnc2)c1=O (single isomer, unassigned) [Example 18] | 38.2
O=C(N[C@@H]1CS(=O)(=O)C[C@@H]1O)c1cc(-c2ccc(C(F)(F)F)nc2)nn(-c2cccc(F)c2)c1=O (single isomer, unassigned) [Example 20, (+)-2-(3-fluorophenyl)-N-[(cis)-4-hydroxy-1,1-dioxidotetrahydro-thiophen-3-yl]-3-oxo-6-[6-(trifluoromethyl)pyridin-3-yl]-2,3-dihydropyridazine-4-carboxamide] | 54.3
O=C(N[C@@H]1CS(=O)(=O)C[C@@H]1O)c1cc(-c2ccc(C(F)(F)F)nc2)nn(-c2cccc(F)c2)c1=O (single isomer, unassigned) [Example 21, (−)-2-(3-fluorophenyl)-N-[(cis)-4-hydroxy-1,1-dioxidotetrahydro-thiophen-3-yl]-3-oxo-6-[6-(trifluoromethyl)pyridin-3-yl]-2,3-dihydropyridazine-4-carboxamide] | 205
C[C@@H](C[S+](C)[O-])NC(=O)c1cc(-c2ccc(C(F)(F)F)cc2)nn(-c2cnn(C)c2)c1=O (single isomer, unassigned) [Example 25] | 41.4
O=C(N[C@@H]1C[S+]([O-])C[C@@H]1O)c1cc(-c2ccc(Cl)cc2)nn(-c2cccc(F)c2)c1=O (single isomer, unassigned) [Example 26, 6-(4-chlorophenyl)-2-(3-fluorophenyl)-N-[(cis)-4-hydroxy-1-oxidotetrahydro-thiophen-3-yl]-3-oxo-2,3-dihydropyridazine-4-carboxamide] | 33.3
